We go through one molecule from patent US5480908A, “β3 -adrenergic agents benzodioxole dicarboxylates and their use in pharmaceutical compositions” (American Cyanamid Company, priority 1993, dated 1996).

Where a name gives a salt, the structure may show the parent alone.

For orientation: IC50 means the concentration that inhibits the measured activity by half. A high value points to weaker potency in that assay. Broadly, the EC50 is the concentration that produces a half-maximal response. Read a low EC50 as an effect from little substance.

Experiment [1] has as its system β1 -adrenergic receptor. The experiment can be described thus: Heart Binding (β1): binding assay with membranes from rat heart. The settings on record: β3 lipolysis vs β1 heart binding. The method, then:
(§1) Selectivity of a compound is determined using the following procedures.
(§2) Binding assays for β1 -effect are carried out by the use of membranes from rat heart, and β2 -effect by the use of membranes from rat lung by the method described in Neve, et. al., J. Pharmacol. Exp. Ther., 1985, 235, 657-664 with the following exceptions:
(§3) 1. the incubation volume is 0.5 ml,
(§4) 2. the incubation time is 1 hour,
(§5) 3. the radioligand is [^125 I]iodo-cyanopindolol,
(§6) 4. (--) - isoproterenol (50 μM) is used to define […], and
(§7) 5. the filters are washed at 4° C.

For experiment [2], the target named is T1, β1 -adrenergic receptor (Rattus norvegicus, UniProt P18090).
T1 construct: membranes from rat heart; from tissue; host or cells: rat heart membranes
T1 sequence (P18090 whole entry): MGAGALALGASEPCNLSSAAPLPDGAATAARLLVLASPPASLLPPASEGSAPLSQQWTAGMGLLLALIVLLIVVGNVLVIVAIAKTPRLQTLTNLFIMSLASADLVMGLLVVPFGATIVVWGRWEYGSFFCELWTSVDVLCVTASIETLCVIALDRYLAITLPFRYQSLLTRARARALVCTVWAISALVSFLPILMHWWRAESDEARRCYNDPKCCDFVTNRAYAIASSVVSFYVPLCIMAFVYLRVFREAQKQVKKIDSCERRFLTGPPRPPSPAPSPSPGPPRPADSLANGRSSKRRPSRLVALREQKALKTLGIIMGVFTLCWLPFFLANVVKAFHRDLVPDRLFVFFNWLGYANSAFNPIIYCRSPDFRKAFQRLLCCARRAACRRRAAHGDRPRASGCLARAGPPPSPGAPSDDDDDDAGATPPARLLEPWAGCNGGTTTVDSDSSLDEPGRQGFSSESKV
The experiment is described as above. As to conditions: rat heart membranes, [^125 I]iodo-cyanopindolol, 1 hour. The method, then:
as §1, §2, §3, §4, §5, §6, §7

The target of a further experiment is T2, β3 -adrenergic receptor (Rattus norvegicus, UniProt P26255).
T2 construct: Rat epididymal fat pads are excised and placed in 0.9% saline; from tissue; host or cells: rat epididymal fat pads, collagenase-isolated adipocytes
T2 sequence (P26255 whole entry): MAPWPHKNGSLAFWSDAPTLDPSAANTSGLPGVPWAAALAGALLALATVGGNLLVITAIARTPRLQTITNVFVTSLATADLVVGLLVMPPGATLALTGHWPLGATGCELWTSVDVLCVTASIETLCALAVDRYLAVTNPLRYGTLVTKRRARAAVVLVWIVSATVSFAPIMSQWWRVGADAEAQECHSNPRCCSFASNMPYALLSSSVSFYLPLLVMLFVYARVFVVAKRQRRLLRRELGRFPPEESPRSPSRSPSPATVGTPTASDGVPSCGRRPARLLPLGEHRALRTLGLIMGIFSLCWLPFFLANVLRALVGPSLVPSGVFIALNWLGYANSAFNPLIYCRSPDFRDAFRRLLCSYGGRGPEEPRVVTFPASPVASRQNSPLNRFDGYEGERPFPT
Put plainly: Lipolysis (β3-effect): stimulation of adipocyte lipolysis, glycerol release. As to conditions: rat epididymal adipocytes, 30 minutes, 37° C.; concentration giving 50% of the maximum rate of lipolysis of that compound. The experiment is classed as cell-based. The procedure: as §1
The β3 -effect of the compounds is determined by their ability to stimulate adipocyte lipolysis. Rat epididymal fat pads are excised and placed in 0.9% saline. Four grams of tissue is transferred to a flask with 20 ml of aerated KrebsHenseleit bicarbonate (KHB) buffer containing 3% fatty acid-free bovine serum albumin to which 75 mg of crude bacterial collagenase (Worthington) has been added. The tissue is incubated for about 45 minutes at 37° C. with gentle shaking. The cells are then washed three times with two volumes of KHB buffer, filtered through two layers of gauze, and brought to a final volume of 80 ml with KHB buffer. One-ml-aliquots of the cell suspension is added to plastic test tubes containing the appropriate additions of vehicle or compound. The cells are gassed for 1 minute with 95% O2 -5% CO2, capped, and incubated at 37° C. with continuous shaking for a total of 30 minutes. The reaction is stopped by adding 0.1 ml of 30 % perchloric acid and 0.1 ml of chloroform. […] The amount of glycerol generated from the hydrolysis of endogenous triglycerides is determined in a coupled-enzyme spectrophotometric assay. […] The amount of NADH generated, which is proportional to the amount of glycerol, is determined by the increase in absorbance at 340 nm. […]

Experiment [3] deals with β2. The experiment can be described thus: Lung Binding (β2): binding assay with membranes from rat lung. As to conditions: printed β3; Table 1 indicates β2 (lung binding). The method, then:
as §1, §2, §3, §4, §5, §6, §7

Experiment [4] addresses T3, β2 (Rattus norvegicus, UniProt P10608).
T3 construct: membranes from rat lung; from tissue; host or cells: rat lung membranes
Described as above. As to conditions: rat lung membranes, [^125 I]iodo-cyanopindolol, 1 hour. The procedure:
as §1, §2, §3, §4, §5, §6, §7

T3 sequence (P10608 whole entry): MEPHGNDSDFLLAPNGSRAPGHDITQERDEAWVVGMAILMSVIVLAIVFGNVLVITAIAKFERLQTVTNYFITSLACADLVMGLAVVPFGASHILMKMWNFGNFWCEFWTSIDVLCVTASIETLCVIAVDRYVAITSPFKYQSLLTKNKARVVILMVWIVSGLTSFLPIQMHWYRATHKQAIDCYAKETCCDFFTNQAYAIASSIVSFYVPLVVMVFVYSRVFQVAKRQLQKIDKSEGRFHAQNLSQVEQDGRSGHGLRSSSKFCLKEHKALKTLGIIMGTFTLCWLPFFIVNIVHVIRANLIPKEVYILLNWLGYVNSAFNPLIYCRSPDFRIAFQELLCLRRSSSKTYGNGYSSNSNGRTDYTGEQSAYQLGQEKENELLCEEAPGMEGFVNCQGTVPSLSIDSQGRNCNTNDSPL

Consider `C[C@H](Cc1ccc2c(c1)OC(C(=O)O)(C(=O)O)O2)NCC(O)COc1cccc2ccccc12` (mixture of isomers) [Example 1, (R,R) and (S,R)-5-[2-[[2-Hydroxy-3-(1-naphthalenyloxy)propyllamino]propyl-1,3-benzodioxole-2,2-dicarboxylic acid, disodium salt], for which the “selectivity for the β3 -adrenergic receptor over the β1 -adrenergic receptor” value with β1 -adrenergic receptor [1] is listed as “shows selectivity”. Further, the IC50 on β1 -adrenergic receptor [2] was 1520 nM; at β2 [4], 360 nM. Besides, the EC50 on β3 -adrenergic receptor was determined as 264 nM. Besides, the “selectivity when compared to the β3 -receptor” value with β2 [3] is listed as “not selective”.
